Assay results: article PMC11222147, “Host defence peptide plectasin targets bacterial cell wall precursor lipid II by a calcium-sensitive supramolecular mechanism” (Nature Microbiology, 2024)
≈ marks a conversion by molar mass, not a printed value. Where a SMILES comes first, the peptide text is derived from it. Bridges are numbered along the chain shown (N, C = ends).

Test system: S. simulans 22
Experiment: MIC assays under standard conditions
Assay type: cell-based, Staphylococcus simulans
Conditions: for Minimum inhibitory concentration, S. simulans: Supplementary Table 1, 16–20 h
Experimental: Plectasin and analogues were serially diluted in cation-adjusted Mueller–Hinton broth (MHB) in round-bottom polypropylene 96-well plates (50 µl per well). Selected bacterial strains were grown from glycerol stocks on blood agar plates. Individual colonies were inoculated in TSB and incubated at 37 °C while shaking until OD600 reached 0.5. Bacterial suspensions were then diluted 100 times in cation-adjusted MHB and distributed (50 μl per well) over the microplate containing the diluted plectasin solutions. Plates were covered by a gas-permeable adhesive membrane and incubated at 37 °C while shaking. MICs were determined by visual inspection after 16–20 h (Staphylococcus) or 20–24 h (Streptococcus). For Streptococcus strains, the broth was additionally supplemented with 5% lysed horse blood, and the microplates were incubated under 5% CO2 atmosphere. In the assays, we used the following strains: S. simulans, S. pneumoniae serotype 8, S. pneumoniae ATCC6305 and Streptococcus pyogenes M3.

Row | SMILES | Minimum inhibitory concentration, S. simulans (cation-adjusted MHB, 37 °C) | reduction in activity vs plectasin (from MIC of Table 1) | MIC (standard conditions, cation-adjusted MHB, 37 °C, visual inspection after 16–20 h) [µg/mL]
1 | CSCC[C@@H]1NC(=O)[C@H](CC(=O)O)NC(=O)[C@H](CC(=O)O)NC(=O)[C@H](CCC(=O)O)NC(=O)[C@H](CC(=O)O)NC(=O)[C@H](Cc2c[nH]c3ccccc23)NC(=O)[C@@H]2CCCN2C(=O)CNC(=O)[C@H](CC(N)=O)NC(=O)[C@@H](NC(=O)CNC(=O)[C@H](Cc2ccccc2)NC(=O)CN)CSSC[C@@H]2NC(=O)[C@H](Cc3ccc(O)cc3)NC(=O)CNC(=O)CNC(=O)[C@H](CCCCN)NC(=O)[C@H](Cc3ccc(O)cc3)NC(=O)CNC(=O)[C@H](CCCCN)NC(=O)[C@H](CC(=O)O)NC(=O)[C@H](CO)NC(=O)[C@H](CCCCN)NC(=O)[C@@H]3CSSC[C@@H](C(=O)N[C@@H](Cc4ccc(O)cc4)C(=O)O)NC(=O)[C@H](CCCCN)NC(=O)[C@H](CSSC[C@H](NC(=O)[C@H](CCC(N)=O)NC1=O)C(=O)N[C@@H](Cc1c[nH]cn1)C(=O)N[C@@H](CC(N)=O)C(=O)N[C@@H](Cc1c[nH]cn1)C(=O)N3)NC(=O)[C@H](C(C)C)NC(=O)[C@H](Cc1ccccc1)NC(=O)CNC(=O)CNC(=O)[C@H](CCCCN)NC(=O)[C@H](C)NC2=O [I22D] (H-GFGCNGPWDEDDMQCHNHCKSDKGYKGGYCAKGGFVCKCY-OH; disulfide 4-30, 15-37, 19-39 (inferred); N-terminus and C-terminus assumed) | > 50 µg/mL | – | –
2 | CSCC[C@@H]1NC(=O)[C@H](CC(=O)O)NC(=O)[C@H](CC(=O)O)NC(=O)[C@H](CCC(=O)O)NC(=O)[C@H](CC(=O)O)NC(=O)[C@H](Cc2c[nH]c3ccccc23)NC(=O)[C@@H]2CCCN2C(=O)CNC(=O)[C@H](CC(N)=O)NC(=O)[C@@H](NC(=O)CNC(=O)[C@H](Cc2ccccc2)NC(=O)CN)CSSC[C@@H]2NC(=O)[C@H](Cc3ccc(O)cc3)NC(=O)CNC(=O)CNC(=O)[C@H](CCCCN)NC(=O)[C@H](Cc3ccc(O)cc3)NC(=O)CNC(=O)[C@H](CCCCN)NC(=O)[C@H](Cc3ccccc3)NC(=O)[C@H](CO)NC(=O)[C@H](CCCCN)NC(=O)[C@@H]3CSSC[C@@H](C(=O)N[C@@H](Cc4ccc(O)cc4)C(=O)O)NC(=O)[C@H](CCCCN)NC(=O)[C@H](CSSC[C@H](NC(=O)[C@H](CCC(N)=O)NC1=O)C(=O)N[C@@H](Cc1c[nH]cn1)C(=O)N[C@@H](CC(N)=O)C(=O)N[C@@H](Cc1c[nH]cn1)C(=O)N3)NC(=O)[C@H](C(C)C)NC(=O)[C@H](Cc1ccccc1)NC(=O)CNC(=O)CNC(=O)[C@H](CCCCN)NC(=O)[C@H](C)NC2=O [I22F] (H-GFGCNGPWDEDDMQCHNHCKSFKGYKGGYCAKGGFVCKCY-OH; disulfide 4-30, 15-37, 19-39 (inferred); N-terminus and C-terminus assumed) | > 50 µg/mL | – | –
3 | CSCC[C@@H]1NC(=O)[C@H](CC(=O)O)NC(=O)[C@H](CC(=O)O)NC(=O)[C@H](CCC(=O)O)NC(=O)[C@H](CC(=O)O)NC(=O)[C@H](Cc2c[nH]c3ccccc23)NC(=O)[C@@H]2CCCN2C(=O)CNC(=O)[C@H](CC(N)=O)NC(=O)[C@@H](NC(=O)CNC(=O)[C@H](Cc2ccccc2)NC(=O)CN)CSSC[C@@H]2NC(=O)[C@H](Cc3ccc(O)cc3)NC(=O)CNC(=O)CNC(=O)[C@H](CCCCN)NC(=O)[C@H](Cc3ccc(O)cc3)NC(=O)CNC(=O)[C@H](CCCCN)NC(=O)[C@H](CC(C)C)NC(=O)[C@H](CO)NC(=O)[C@H](CCCCN)NC(=O)[C@@H]3CSSC[C@@H](C(=O)N[C@@H](Cc4ccc(O)cc4)C(=O)O)NC(=O)[C@H](CCCCN)NC(=O)[C@H](CSSC[C@H](NC(=O)[C@H](CCC(N)=O)NC1=O)C(=O)N[C@@H](Cc1c[nH]cn1)C(=O)N[C@@H](CC(N)=O)C(=O)N[C@@H](Cc1c[nH]cn1)C(=O)N3)NC(=O)[C@H](C(C)C)NC(=O)[C@H](Cc1ccccc1)NC(=O)CNC(=O)CNC(=O)[C@H](CCCCN)NC(=O)[C@H](C)NC2=O [I22L] (H-GFGCNGPWDEDDMQCHNHCKSLKGYKGGYCAKGGFVCKCY-OH; disulfide 4-30, 15-37, 19-39 (inferred); N-terminus and C-terminus assumed) | 1,56 μg/mL | – | –
4 | CSCC[C@@H]1NC(=O)[C@H](CC(=O)O)NC(=O)[C@H](CC(=O)O)NC(=O)[C@H](CCC(=O)O)NC(=O)[C@H](CC(=O)O)NC(=O)[C@H](Cc2c[nH]c3ccccc23)NC(=O)[C@@H]2CCCN2C(=O)CNC(=O)[C@H](CC(N)=O)NC(=O)[C@@H](NC(=O)CNC(=O)[C@H](Cc2ccccc2)NC(=O)CN)CSSC[C@@H]2NC(=O)[C@H](Cc3ccc(O)cc3)NC(=O)CNC(=O)CNC(=O)[C@H](CCCCN)NC(=O)[C@H](Cc3ccc(O)cc3)NC(=O)CNC(=O)[C@H](CCCCN)NC(=O)[C@H](C(C)C)NC(=O)[C@H](CO)NC(=O)[C@H](CCCCN)NC(=O)[C@@H]3CSSC[C@@H](C(=O)N[C@@H](Cc4ccc(O)cc4)C(=O)O)NC(=O)[C@H](CCCCN)NC(=O)[C@H](CSSC[C@H](NC(=O)[C@H](CCC(N)=O)NC1=O)C(=O)N[C@@H](Cc1c[nH]cn1)C(=O)N[C@@H](CC(N)=O)C(=O)N[C@@H](Cc1c[nH]cn1)C(=O)N3)NC(=O)[C@H](C(C)C)NC(=O)[C@H](Cc1ccccc1)NC(=O)CNC(=O)CNC(=O)[C@H](CCCCN)NC(=O)[C@H](C)NC2=O [I22V] (H-GFGCNGPWDEDDMQCHNHCKSVKGYKGGYCAKGGFVCKCY-OH; disulfide 4-30, 15-37, 19-39 (inferred); N-terminus and C-terminus assumed) | 1,56 μg/mL | – | –
5 | CC[C@H](C)[C@@H]1NC(=O)[C@H](CO)NC(=O)[C@H](CCCCN)NC(=O)[C@@H]2CSSC[C@@H](C(=O)N[C@@H](Cc3ccc(O)cc3)C(=O)O)NC(=O)[C@H](CCCCN)NC(=O)[C@@H]3CSSC[C@H](NC(=O)[C@H](CCC(N)=O)NC(=O)[C@H](CCSC)NC(=O)[C@H](CC(=O)O)NC(=O)[C@H](CC(=O)O)NC(=O)[C@H](CCC(=O)O)NC(=O)[C@H](CC(=O)O)NC(=O)[C@H](Cc4c[nH]c5ccccc45)NC(=O)[C@@H]4CCCN4C(=O)CNC(=O)[C@H](CC(N)=O)NC(=O)[C@@H](NC(=O)CNC(=O)[C@H](Cc4ccccc4)NC(=O)CN)CSSC[C@H](NC(=O)[C@H](Cc4ccc(O)cc4)NC(=O)CNC(=O)CNC(=O)[C@H](CCCCN)NC(=O)[C@H](Cc4ccc(O)cc4)NC(=O)CNC(=O)[C@H](C)NC1=O)C(=O)N[C@@H](C)C(=O)N[C@@H](CCCCN)C(=O)NCC(=O)NCC(=O)N[C@@H](Cc1ccccc1)C(=O)N[C@@H](C(C)C)C(=O)N3)C(=O)N[C@@H](Cc1c[nH]cn1)C(=O)N[C@@H](CC(N)=O)C(=O)N[C@@H](Cc1c[nH]cn1)C(=O)N2 [K23A] (H-GFGCNGPWDEDDMQCHNHCKSIAGYKGGYCAKGGFVCKCY-OH; disulfide 4-30, 15-37, 19-39 (inferred); N-terminus and C-terminus assumed) | – | fivefold to tenfold | 6.25 (≈ 1.44 µM)
6 | CC[C@H](C)[C@@H]1NC(=O)[C@H](CO)NC(=O)[C@H](CCCCN)NC(=O)[C@@H]2CSSC[C@@H](C(=O)N[C@@H](Cc3ccc(O)cc3)C(=O)O)NC(=O)[C@H](CCCCN)NC(=O)[C@@H]3CSSC[C@H](NC(=O)[C@H](CCC(N)=O)NC(=O)[C@H](CCSC)NC(=O)[C@H](CC(=O)O)NC(=O)[C@H](CC(=O)O)NC(=O)[C@H](CCC(=O)O)NC(=O)[C@H](CC(=O)O)NC(=O)[C@H](Cc4c[nH]c5ccccc45)NC(=O)[C@@H]4CCCN4C(=O)CNC(=O)[C@H](CC(N)=O)NC(=O)[C@@H](NC(=O)CNC(=O)[C@H](Cc4ccccc4)NC(=O)CN)CSSC[C@H](NC(=O)[C@H](Cc4ccc(O)cc4)NC(=O)CNC(=O)CNC(=O)[C@H](CCCCN)NC(=O)[C@H](Cc4c[nH]cn4)NC(=O)CNC(=O)[C@H](CCCCN)NC1=O)C(=O)N[C@@H](C)C(=O)N[C@@H](CCCCN)C(=O)NCC(=O)NCC(=O)N[C@@H](Cc1ccccc1)C(=O)N[C@@H](C(C)C)C(=O)N3)C(=O)N[C@@H](Cc1c[nH]cn1)C(=O)N[C@@H](CC(N)=O)C(=O)N[C@@H](Cc1c[nH]cn1)C(=O)N2 [Y25H] (H-GFGCNGPWDEDDMQCHNHCKSIKGHKGGYCAKGGFVCKCY-OH; disulfide 4-30, 15-37, 19-39 (inferred); N-terminus and C-terminus assumed) | ≤ 0.78 µg/mL | – | –
7 | CC[C@H](C)[C@@H]1NC(=O)CNC(=O)[C@H](CCCCN)NC(=O)[C@H]([C@@H](C)CC)NC(=O)[C@H](CO)NC(=O)[C@H](CCCCN)NC(=O)[C@@H]2CSSC[C@@H](C(=O)N[C@@H](Cc3ccc(O)cc3)C(=O)O)NC(=O)[C@H](CCCCN)NC(=O)[C@@H]3CSSC[C@H](NC(=O)[C@H](CCC(N)=O)NC(=O)[C@H](CCSC)NC(=O)[C@H](CC(=O)O)NC(=O)[C@H](CC(=O)O)NC(=O)[C@H](CCC(=O)O)NC(=O)[C@H](CC(=O)O)NC(=O)[C@H](Cc4c[nH]c5ccccc45)NC(=O)[C@@H]4CCCN4C(=O)CNC(=O)[C@H](CC(N)=O)NC(=O)[C@@H](NC(=O)CNC(=O)[C@H](Cc4ccccc4)NC(=O)CN)CSSC[C@H](NC(=O)[C@H](Cc4ccc(O)cc4)NC(=O)CNC(=O)CNC(=O)[C@H](CCCCN)NC1=O)C(=O)N[C@@H](C)C(=O)N[C@@H](CCCCN)C(=O)NCC(=O)NCC(=O)N[C@@H](Cc1ccccc1)C(=O)N[C@@H](C(C)C)C(=O)N3)C(=O)N[C@@H](Cc1c[nH]cn1)C(=O)N[C@@H](CC(N)=O)C(=O)N[C@@H](Cc1c[nH]cn1)C(=O)N2 [Y25I] (H-GFGCNGPWDEDDMQCHNHCKSIKGIKGGYCAKGGFVCKCY-OH; disulfide 4-30, 15-37, 19-39 (inferred); N-terminus and C-terminus assumed) | 6,25 μg/mL | – | –
